This note sets out measurements from PMC7496275, “Pentathiepins: A Novel Class of Glutathione Peroxidase 1 Inhibitors that Induce Oxidative Stress, Loss of Mitochondrial Membrane Potential and Apoptosis in Human Cancer Cells” (Chemmedchem, 2020).

One assay concerns pBR322 plasmid. The assay is described as follows: Cleavage of supercoiled plasmid DNA. The following applies: 5 μM, 20 h, 37 °C. Here is the method:
To assess the potential DNA‐cleaving activity of 4 a plasmid cleavage assay was performed. This method makes use of the different mobilities that plasmids display during electrophoretic separation processes in an agarose gel. An intact supercoiled plasmid has the highest mobility due to its compactness, open circular plasmids (ocDNA), e. g. plasmids with a single strand break, present a lower mobility due to increased friction of this less compact DNA construct. Commercially available DNA plasmids usually present ratios of 95 % supercoiled and 5 % ocDNA. Upon treatment with DNA‐damaging agents this ratio will be shifted towards a higher amount of ocDNA due to single strand breaks, or even linearized DNA in case double strand breaks are induced. […]
Cleavage of supercoiled plasmid DNA: For this assay, 0.3 μg pBR322 plasmid (Thermo Fisher) were incubated with either 0.1 % DMF or 5 μM 4 with or without 2 mM glutathione (GSH) in a 50 mM sodium phosphate buffer at pH 7.5 for 20 h in a 37 °C water bath. Afterwards, the samples were separated on a 1 % agarose (Geneon) gel at 80 V (5 V/cm) for 2 h, stained with GelRed (Biotium) and the image captured and bands quantified using ImageLab (Biorad). The resulting data was analyzed and visualized with Prism 7 (GraphPad).

In assay [1] the test system is Gumbus cells. The assay is described as follows: Detection of reactive oxygen species (DCF-DA flow cytometry). In kind it is cell-based, human. As to conditions: 25 μM, 10 min. From the text:
(§1) It has long been observed that pentathiepins are able to produce reactive oxygen species outside of cells.16, 17, 20 Whether ROS production can also occur in living cells has not yet been reported. To determine if 4 can produce ROS in HL‐60 and Gumbus cells, the cytosolic ROS detector 2′,7′‐dichlorofluorescin diacetate (DCF−DA) was used. […] Thus, pentathiepins appear capable of generating ROS inside living cells within a very short period of time.
(§2) Detection of reactive oxygen species: To detect cellular reactive oxygen species (ROS) a flow cytometry technique based on the use of the ROS‐sensor 2′,7′‐dichlorofluorescin diacetate (DCF‐DA) was used.38 Briefly, cells were collected in reaction tubes and washed with 500 μL phosphate buffered saline (PBS). The cell pellets were resuspended in 1 mL PBS and stained with 2 μL DCF‐DA stock solution (10 mM in DMSO) for 30 min at 37 °C. Then cells were washed with 500 μL PBS and suspended in 1 mL PBS followed by addition of […] 4 ([…]) to a final concentration of 25 μM. After an incubation period of 10 min cells were washed with PBS, resuspended in 500 μL PBS and analyzed by flow cytometry with a MACSQuant Analyzer 10 (Miltenyi Biotec, Germany) set at λ Ex/Em=488/530 nm.
For orientation: Flow cytometry measures light scatter and fluorescence of single cells or particles in a stream.

Assay [2] has as its system HL-60 cells. The assay is described as above. In kind it is cell-based, human. As to conditions: 25 μM, 10 min.
Source text: as §1, §2

Assay [3] concerns Gumbus cells. Briefly: Apoptosis staining with Annexin-V/PI (flow cytometry). The format is cell-based, human. Here is the method:
(§3) To determine whether the loss in viability by 4 is caused by apoptosis, a flow cytometric analysis with Annexin‐V−FITC and PI‐stained cells was used. Early apoptotic cells undergo a translocation of phosphatidyl serine from the inner to the outer cell membrane monitored by Annexin‐V−FITC. Late apoptotic or necrotic cells also show a loss of cell membrane integrity verifiable by PI. Cells were exposed to 4 in multiple concentrations of the viability inhibition IC50 for 6 and 24 h.
(§4) Apoptosis staining with Annexin‐V/PI: For the apoptosis measurement, the translocation of phosphatidyl serine from the inner to the outer membrane by Annexin‐V and PI double staining was used.41 The protocol of the manufacturer (Miltenyi Biotec, Germany) of the “Annexin‐V‐FITC Apoptosis Detection Kit” was followed. In brief, 500,000 cells were seeded into 6‐well plates and exposed to 4 at multiple concentrations of the viability IC50 for 6 and 24 h. Afterwards, the cells were collected in reaction tubes, washed with the binding buffer belonging to the Annexin‐V‐Kit and stained with Annexin‐V‐FITC for 10 min. After repeated washing steps, the PI solution was added to the cells and followed by the flow cytometry investigation analyses at λ ex/em=488/525±50 nm for FITC and λ ex/em=488/655–730 nm for PI with a MACSQuant Analyzer 10 (Miltenyi Biotec).

The subject of assay [4] is HL-60 cells. The assay is described as above. In kind it is cell-based, human. The following applies: multiples of viability IC50, 24 h. Here is the method: as §3, §4
The subject of a further assay is HAP-1 cells. Briefly: Alkaline comet assay. In kind it is cell-based, human. The following applies: 25 μM, 15 min at 0 °C. Here is the method: To assess the induction of DNA strand breaks by pentathiepin 4 the Comet Assay was used. The SISO and HAP‐1 cell lines were treated with either 1 % DMF (solvent control), 20 μM H2O2 (positive control) or 25 μM 4 for 15 min at 0 °C. The DNA in the comet head corresponds to still intact genomic DNA while the tail forms due to the damage of nuclear DNA (Figure 9B). […] For HAP‐1 cells a greater reduction of intact DNA from 86 % in control cells to 66 % in pentathiepin‐incubated cells was observed.
Alkaline comet assay to assess induction of DNA strand breaks: The method was adapted from Olive and Banath.40 The alkaline protocol allows for the detection of single and double strand breaks as well as alkali‐labile sites and is based on the different electrophoretic mobility of intact and damaged nuclear DNA. […] The induction of strand breaks creates free charged ends that drift out and form the characteristic comet tail. The percentage of DNA that is located in the comet head was selected as descriptor, which corresponds to the amount of still intact genomic DNA.
Briefly, SISO and HAP‐1 cells were harvested by trypsinization and a single cell suspension with 50 000 cells per mL PBS was prepared. Per condition 50 000 cells were incubated on ice (to impair DNA repair) with either the solvent control DMF (1.0 %), 20 μM H2O2 or 25 μM 4 for 15 min. Afterwards, 400 μL of the cell suspension were mixed with 1.2 mL 1 % low melting point agarose (Carl Roth, Germany) at 40 °C and evenly distributed on agarose‐precoated (GeneOn, Germany) glass slides (Thermo Fisher). After 3 min polymerization the slides were horizontally submerged in lysis buffer (1.2 M NaCl (Carl Roth, Germany), 0.1 % N‐Lauryl‐Sarcosinate (Merck), 0.1 M Na‐EDTA, 0.26 M NaOH) and placed at 4 °C overnight. Before electrophoresis at 0.6 V/cm for 25 min the slides were rinsed three times in rinse/electrophoresis buffer (0.002 M Na‐EDTA, 0.03 M NaOH). Afterwards, the slides were neutralized in distilled water and subsequently stained with 250 μL of a 10 μg/mL PI in water solution for 20 min. Finally, the slides were analyzed with a Leica DMi8 fluorescent microscope and LASX software (Leica, Germany) and comets were scored with CometScore 2.0 (Rex A. Hoover, www.rexhoover.com). At least 100 comets were scored per condition.

Take `CCOc1c2c(c3cnc4cc(C)c(C)cc4n13)SSSSS2` [Compound 4]: the “fraction of damaged plasmid” value in the assay on pBR322 plasmid (with 2 mM GSH) is 19%; in the assay on pBR322 plasmid (without additional thiol) it was 7%. Moreover, the ROS formation result with Gumbus cells [1] is “significant burst of ROS”; in the assay with HL-60 cells [2], “rapid but not as intense as with the Gumbus line”. Also, the apoptotic population entry in the assay on Gumbus cells [3] (fourfold IC50 concentration, 6 h) was “nearly every cell was apoptotic”; in the assay on Gumbus cells [3] (multiples of viability IC50, 6 h), “significant increase of an apoptotic population”; with HL-60 cells [4], “significant increase of an apoptotic population”. Also, in the assay on HAP-1 cells, the “percentage of intact DNA in comet head” value was determined as 66%.
